According to PubChem BioAssay (NCI):
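Cells were grown in 96-well plates and exposed to each compound for 48 hours at five concentrations; endpoints were interpolated linearly between bracketing concentrations, or set to the highest concentration if not reached. At the GI50, growth is halved. At the TGI there is no net growth.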

Tests used:
Test in all cases: DTP human tumour cell line panel, 48 h
[1] = system: MOLT-4 leukemia
[2] = system: NCI-H226 lung
[3] = system: NCI-H23 lung
[4] = system: NCI-H460 lung
[5] = system: NCI-H522 lung
[6] = system: NCI/ADR-RES ovarian
[7] = system: OVCAR-3 ovarian
[8] = system: OVCAR-4 ovarian
[9] = system: OVCAR-5 ovarian
[10] = system: OVCAR-8 ovarian
[11] = system: PC-3 prostate
[12] = system: RPMI-8226 leukemia
[13] = system: RXF 393 renal
[14] = system: SF-268 CNS
[15] = system: SF-295 CNS
[16] = system: SF-539 CNS
[17] = system: SK-MEL-28 melanoma
[18] = system: SK-MEL-5 melanoma
[19] = system: SK-OV-3 ovarian
[20] = system: SN12C renal
[21] = system: SNB-19 CNS
[22] = system: SR leukemia
[23] = system: SW-620 colon
[24] = system: T-47D breast
[25] = system: TK-10 renal
[26] = system: U251 CNS
[27] = system: UACC-257 melanoma
[28] = system: UACC-62 melanoma

O=C(Nc1ccc(I)cc1)Nc1nc2ccc([N+](=O)[O-])cc2s1
TGI [1]: 7.12 µM
GI50 [2]: 3.45 µM
TGI [2]: 13 µM
GI50 [3]: 2230 nM
TGI [3]: 5.85 µM
GI50 [4]: 3.21 µM
TGI [4]: 10.4 µM
GI50 [5]: 2290 nM
TGI [5]: 6.75 µM
GI50 [6]: 2920 nM
TGI [6]: 9.27 µM
GI50 [7]: 3.48 µM
TGI [7]: 12.6 µM
GI50 [8]: 3.69 µM
TGI [8]: 14.5 µM
GI50 [9]: 4.11 µM
TGI [9]: 15.9 µM
GI50 [10]: 3.48 µM
TGI [10]: 11.8 µM
GI50 [11]: 3.16 µM
TGI [11]: 11.4 µM
GI50 [12]: 2070 nM
TGI [12]: 5.23 µM
GI50 [13]: 3.53 µM
TGI [13]: 12.9 µM
GI50 [14]: 3.63 µM
TGI [14]: 14.6 µM
GI50 [15]: 2930 nM
TGI [15]: 10.6 µM
GI50 [16]: 3.01 µM
TGI [16]: 9.39 µM
GI50 [17]: 3.19 µM
TGI [17]: 10.7 µM
GI50 [18]: 1930 nM
TGI [18]: 3.9 µM
GI50 [19]: 2930 nM
TGI [19]: 9.16 µM
GI50 [20]: 2860 nM
TGI [20]: 9.42 µM
GI50 [21]: 3.44 µM
TGI [21]: 12.9 µM
GI50 [22]: 2240 nM
TGI [22]: 5.84 µM
GI50 [23]: 3.56 µM
TGI [23]: 13.1 µM
GI50 [24]: 2800 nM
TGI [24]: 8.71 µM
GI50 [25]: 3.67 µM
TGI [25]: 11.7 µM
GI50 [26]: 3.23 µM
TGI [26]: 10.7 µM
GI50 [27]: 2830 nM
TGI [27]: 8.24 µM
GI50 [28]: 2990 nM
TGI [28]: 10.3 µM
